Results on 97 compounds are retold here after the kinase profiling compilation of Christmann-Franck et al. (2016).

One may read the Ki as the dissociation constant of the complex between target and ligand, obtained from inhibition or displacement. A high value points to weaker binding.

Sequence of SGK1 (human) (O00141 whole entry, looked up): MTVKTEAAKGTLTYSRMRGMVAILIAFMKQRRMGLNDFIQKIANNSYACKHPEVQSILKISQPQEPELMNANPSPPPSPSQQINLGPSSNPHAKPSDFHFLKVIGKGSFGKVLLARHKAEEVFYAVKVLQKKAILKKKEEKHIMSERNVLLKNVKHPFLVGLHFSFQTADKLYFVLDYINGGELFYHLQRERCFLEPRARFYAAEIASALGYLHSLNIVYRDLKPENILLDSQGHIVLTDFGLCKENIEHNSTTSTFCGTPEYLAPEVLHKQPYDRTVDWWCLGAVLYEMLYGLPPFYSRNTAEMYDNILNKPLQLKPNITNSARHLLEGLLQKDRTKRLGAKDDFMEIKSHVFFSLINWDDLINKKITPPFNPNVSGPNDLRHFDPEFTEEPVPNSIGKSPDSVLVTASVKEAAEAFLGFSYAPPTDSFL

This assay concerns the target SGK1 (human) (UniProt O00141). The experiment in a line: Flashplate.
`COc1nccc(-c2c(-c3ccc(F)cc3)ncn2C2CCNCC2)n1` displayed a Ki of over 10 µM.

Take `CC(=O)N1CCC(Nc2nccc(-c3c(-c4ccc(F)cc4)nc4occn34)n2)CC1`: the Ki is over 10 µM.

In the case of `Cc1ccccc1NC(=O)Nc1ccc(-c2coc3ncnc(N)c23)cc1`, the Ki was 2.51 µM.

Take `O=c1[nH]cc(I)c2nc(-c3ccccc3)cn12`: the Ki was over 10 µM.

`FC(F)(F)Oc1ccc(-c2ccc3[nH]cc(C4=CCNCC4)c3c2)cc1` yielded a Ki of over 10 µM.

Compound `c1cc2[nH]ncc2cc1-c1cn(CC2CCOCC2)nn1` gave a Ki of 7.94 µM.

`Cc1cccc(NC(=O)Nc2ccc(-c3ccc4nccnc4c3N)cc2)c1` yielded a Ki of over 10 µM.

`COc1ccc2c(NC(=O)Nc3cccc(Br)n3)ccnc2c1` displayed a Ki of over 10 µM.

On to `Nc1c(-c2ccccc2)c2cc(Cl)ccc2[nH]c1=O`, for which the inhibitory constant (Ki) was over 10 µM.

Consider `Oc1cc(O)cc(/C=C/c2ccc(O)c(O)c2)c1`, for which the Ki amounted to 0.316 µM.

`O=c1[nH]c2sccc2c2nc(-c3ccncc3)nn12` registered a Ki of over 10 µM.

For `CCN(CCCOc1ccc2c(Nc3cc(CC(=O)Nc4cccc(F)c4)[nH]n3)ncnc2c1)CCOP(=O)(O)O`, the Ki is over 6.31 µM.

As to `O=C1NCCc2[nH]c(-c3ccncc3)cc21`, the Ki came out at 5.01 µM.

The compound `COc1ccc(C(=O)Nc2cnc3[nH]cc(-c4ccccc4)c3c2)cc1` registered a Ki of 10 µM.

`N[C@H](COc1cncc(/C=C/c2ccncc2)c1)Cc1ccccc1`: the Ki is over 10 µM.

In turn, `O=C(NS(=O)(=O)c1ccc(NCCSc2ccc(O)cc2)c([N+](=O)[O-])c1)c1ccc(-c2ccc(F)cc2)cc1` returned a Ki of over 10 µM.

Consider `O=C(Nc1cccc(C(F)(F)F)n1)Nc1ccnc2c(F)cccc12`, for which the inhibition constant (Ki) was over 10 µM.

Regarding `COCCO[C@H]1CC[C@H](n2nc(-c3ccc(Nc4nc5cc(C)cc(C)c5o4)cc3)c3c(N)ncnc32)CC1`, the Ki is over 10 µM.

Compound `O[C@H]1CC[C@H](Nc2nc(Cl)cc(-c3c[nH]c4ncccc34)n2)CC1` had a Ki of 0.158 µM.

Turning to `NC(=O)c1cc2c(-c3ccc(F)cc3F)cncc2s1`, the Ki came out at 1.26 µM.

`Cc1cccc(NC(=O)Nc2ccc(-c3csc4ccnc(N)c34)cc2)c1` returned an inhibition constant (Ki) of over 10 µM.

`O=c1[nH]cnc2c1sc1c(Cl)ccc(Cl)c12` gave a Ki of over 10 µM.

Turning to `NC(=O)c1cc(-c2ccnc(N)n2)[nH]c1-c1ccc(Cl)cc1Cl`, the Ki came to 1.58 µM.

`O=C(N[C@H](CO)c1ccccc1)c1ccc(-c2ccncc2)cc1` came in with a Ki of 1.58 µM.

As to `Oc1cccc(Nc2ncnc3scc(Cl)c23)c1`, the Ki is over 10 µM.

In the case of `Cc1nc(COc2ccccc2Cl)sc1-c1ccnc(N)n1`, the Ki stood at 1 µM.

For the compound `NC(=O)c1cc2c(-c3cccc(F)c3)cncc2s1`, the inhibition constant Ki was 3.16 µM.

`CCc1cccc(NC(=O)Nc2ccc3c(c2)CCc2sc4ncnc(N)c4c2-3)c1` came in with a Ki of over 10 µM.

In turn, `Cc1cc(C)cc(NC(=O)Nc2ccc(-c3cccc4sncc34)cc2)c1` displayed a Ki of over 10 µM.

`CC1=NN(c2ccccc2)C(=O)/C1=C/c1c(C)c(C#N)c2nc3ccccc3n2c1O` displayed a Ki of over 10 µM.

In the case of `CCCS(=O)(=O)Nc1ccc(-c2ccc3[nH]nc(NC(C)=O)c3c2)cc1`, the Ki was over 10 µM.

In the case of `Brc1ccc2[nH]nc(-c3ccccc3)c2c1`, the Ki was over 10 µM.

For the compound `Cc1nn(-c2ccccc2)c2c1c(=O)c1cc(Cl)ccc1n2O`, the Ki was over 10 µM.

In turn, `Nc1ncnc2sc(Br)c(-c3ccc(NC(=O)Cc4cccc(Cl)c4)cc3)c12` yielded a Ki of over 10 µM.

Regarding `O=C1Nc2ccccc2Nc2nnc(I)cc21`, the Ki came to 3.98 µM.

The compound `CCn1c(-c2nonc2N)nc2cnc(Oc3cccc(NC(=O)c4ccc(OCCN5CCOCC5)cc4)c3)cc21` registered a Ki of 0.2 µM.

Turning to `Cc1nccn2c(-c3ccnc(NCC(C)(C)CO)n3)c(-c3ccc(F)cc3F)nc12`, the Ki is over 10 µM.

On to `O=C(NCc1ccccc1)Nc1ncc([N+](=O)[O-])s1`, for which the Ki was over 10 µM.

Take `O=C(NCc1ccc(Br)cc1)Nc1ccc2[nH]ncc2c1`: the Ki is 1 µM.

`FC(F)(F)c1ccc(Cn2cc(-c3ccc4[nH]ncc4c3)nn2)c(C(F)(F)F)c1` registered a Ki of over 10 µM.

Consider `OCCNc1cc2cc(-c3ccsc3)ccc2cn1`, for which the inhibition constant (Ki) was found to be 0.501 µM.

Regarding `Cc1cccc(NC(=O)Nc2ccc(-c3csc4c(C#CCN5CCCC5)cnc(N)c34)cc2)c1`, the Ki amounted to 5.01 µM.

Regarding `COc1cccc([C@@H](C)NC(=O)c2ccc(-c3ccncc3)cc2NCCCN)c1`, the Ki stood at 0.398 µM.

`CC(C)(CO)CNc1nccc(-c2c(-c3ccc(F)cc3)nc3c(CCN)nccn23)n1` returned a Ki of over 10 µM.

`CCOC(=O)c1cccc2[nH]c(-c3ccc(N4CCC(N)C4)cc3)nc12` (configuration not stated) displayed a Ki of over 10 µM.

As to `N[C@H](COc1cncc(-c2ccc3c(c2)CC(=O)N3)c1)Cc1c[nH]c2ccccc12`, the Ki was 1.26 µM.

Turning to `COc1nccc(-c2c(-c3ccc(F)cc3)ncn2[C@H]2CC[C@H](O)CC2)n1`, the Ki is over 10 µM.

`COc1cc(/C=C2\SC(=O)NC2=O)ccc1O` showed a Ki of 3.98 µM.

`CC(C)(O)c1nnc2ccc(-c3c(-c4ccc(F)cc4F)nc4n3CCC4)nn12` registered a Ki of over 10 µM.

In turn, `N#CC1=C(N)n2c(s/c(=C\c3ccco3)c2=O)=C(C(N)=O)C1c1ccco1` (configuration not stated) gave a Ki of over 10 µM.

Take `Cn1cc(/C=C2\C(=O)Nc3cccnc32)c2ccccc21`: the Ki worked out at 2.51 µM.

With `Cc1n[nH]c2c1C(c1ccccc1Cl)C(C#N)=C(N)O2` (configuration not stated), the Ki is over 10 µM.

Turning to `COc1ccc(C(=O)Nc2nc3ccc(Cl)cc3s2)c(OC)c1`, the Ki was over 10 µM.

`COc1nccn2c(-c3ccnc(NCC(C)(C)CO)n3)c(-c3ccc(F)cc3F)nc12` displayed a Ki of over 10 µM.

In turn, `COc1cc(Nc2ncnc3ccc(-c4ccc(CN5C[C@@H]6C(CO)[C@@H]6C5)cc4)cc23)ccc1Oc1ccccc1` (some centres not stated) registered a Ki of over 10 µM.

The compound `NC1CCCCC1Nc1nccc(-c2c[nH]c3ncccc23)n1` (configuration not stated) had a Ki of 1.58 µM.

`CC[C@@H]1C(=O)N(C)c2cnc(Nc3ccc(C(=O)NC4CCN(C)CC4)cc3OC)nc2N1C1CCCC1`: the Ki was over 10 µM.

Take `CCCC(=O)Nc1nn(C(=O)CC)c2nc3ccccc3cc12`: the Ki was over 10 µM.

In the case of `Cc1cccc(/C=N/Nc2cc(N3CCOCC3)nc(OCCc3ccccn3)n2)c1`, the Ki was over 10 µM.

The compound `Cc1[nH]c(/C=C2\C(=O)Nc3ccccc32)c(C)c1CCC(=O)O` showed a Ki of 5.01 µM.

`CN(C)CCCC(=O)Nc1n[nH]c2nnc(-c3cccc(F)c3F)cc12`: the Ki was over 10 µM.

`NCCCOc1cc2c(c(-c3ccc(Nc4nc5ccc(Cl)cc5o4)cc3)c1)CNC2=O` showed a Ki of 5.01 µM.

For `O=C(Nc1cccc(C(F)(F)F)n1)Nc1ccnc2c(Cl)c(Cl)ccc12`, the Ki is over 10 µM.

`Cc1nccn2c(-c3ccnc(NCC(C)(C)C(=O)O)n3)c(-c3ccc(F)cc3F)nc12`: the Ki was over 10 µM.

Regarding `CCCCOc1ncnc2[nH]cc(-c3ccccc3)c12`, the Ki turned out to be 2.51 µM.

For the compound `Cc1cccc(Nc2nc(N[C@@H]3CCCC[C@@H]3N)cnc2C(N)=O)c1`, the inhibition constant (Ki) is over 7.94 µM.

`NCCCn1cc(-c2cc(-c3cc4ccccc4s3)c3[nH]ncc3c2)c2nc(N)ncc21`: the inhibition constant (Ki) stood at 0.501 µM.

Compound `COc1cc(OC)c(Nc2ccc3nnc(-c4ccccc4)n3n2)cc1Cl` gave a Ki of over 10 µM.

`CCNc1nc2cc(Cl)c(OC)cc2nc1NCC` showed a Ki of over 10 µM.

As for `N[C@@H](Cc1c[nH]c2ccccc12)C(=O)Nc1cncc(/C=C/c2ccncc2)c1`, the Ki amounted to 3.16 µM.

`CNC(=O)c1ccccc1Sc1ccc2c(/C=C/c3ccccn3)n[nH]c2c1` returned a Ki of over 10 µM.

For `CCN(CC)CC#Cc1ccc2c(c1)-c1[nH]nc(-c3ccc(C#N)nc3)c1C2`, the Ki is over 10 µM.

As for `Nc1nccc2scc(-c3ccc(NC(=O)Nc4cccc(Br)c4)cc3)c12`, the inhibition constant (Ki) was over 10 µM.

`CNS(=O)(=O)c1ccccc1Nc1nc(Nc2cc(OC)c(OC)c(OC)c2)ncc1Cl` showed a Ki of over 5.01 µM.

Take `COc1cccc(C(CN)NC(=O)c2ccc(-c3ccncc3)cc2)c1` (configuration not stated): the Ki came out at 0.251 µM.

As to `NC(=O)c1cn(-c2ccc(O)cc2Cl)c2cc(-c3ccncc3)ccc2c1=O`, the Ki was found to be 7.94 µM.

For the compound `CCCCn1c(NC(=O)c2ccc(C#N)cc2)nc2cc(N(C)C(=O)C3CCCCC3)ccc21`, the Ki was over 10 µM.

As for `Cc1n[nH]c2ccc(-c3cncc(OC[C@@H](N)Cc4ccc(Cl)c(Cl)c4)c3)cc12`, the Ki stood at 0.0794 µM.

The compound `COc1ccc(NC(=O)Nc2ccc(-c3csc4c(-c5cnn(CC(C)(C)O)c5)cnc(N)c34)cc2)cc1` registered a Ki of over 10 µM.

On to `O=C(Nc1ccc2[nH]ncc2c1)c1cccc(F)c1`, for which the Ki was over 10 µM.

As to `COc1cccc([C@@H](C)NC(=O)c2ccc(-c3ccncn3)cc2)c1`, the inhibition constant (Ki) was found to be 0.631 µM.

As to `CCN(CC)C(=O)Nc1ccc2nc(-c3ccco3)c(-c3ccco3)nc2c1`, the Ki is over 10 µM.

The compound `Cn1cc(C(CN)c2cncc(/C=C/c3ccncc3)c2)c2ccccc21` (configuration not stated) returned an inhibition constant (Ki) of over 10 µM.

Take `CN1CCC[C@H]1COc1cncc(CCc2ccccc2)c1`: the Ki is over 10 µM.

In turn, `CC(=O)N1CCN(C2CCC(n3nc(-c4ccc(NC(=O)c5cc6ccccc6n5C)cc4)c4c(N)ncnc43)CC2)CC1` (configuration not stated) came in with a Ki of over 10 µM.

With `COc1ccc(NC(=O)Nc2ccc(-c3csc4c(-c5cnn(CCO)c5)cnc(N)c34)cc2)cc1`, the Ki was over 10 µM.

Turning to `O=c1c(NCc2ccc(Cl)cc2)c(Nc2ccncc2)c1=O`, the Ki came to 2 µM.

For the compound `Cc1cccc(NC(=O)Nc2ccc(-c3csc4nc(N)nc(N)c34)cc2)c1`, the Ki was over 10 µM.

`NCC(NC(=O)c1ccc(-c2ccncc2)cc1)c1ccccc1` (configuration not stated) displayed a Ki of 0.316 µM.

In the case of `O=S(=O)(c1cccc2cnccc12)N1CCCNCC1`, the Ki was 6.31 µM.

The compound `Nc1nccc2scc(-c3ccc(NC(=O)Nc4cccc(Cl)c4)cc3)c12` had a Ki of over 10 µM.

`COc1cc(/C=C2\S/C(=N\c3ccccc3)NC2=O)ccc1O` gave a Ki of 5.01 µM.

Turning to `Cc1cccc(NC(=O)Nc2ccc(-c3csc4c(C#CCN5CCOCC5)cnc(N)c34)cc2)c1`, the Ki worked out at 6.31 µM.

`COc1cccc([C@@H](C)NC(=O)c2ccc(-c3ccncc3)c(F)c2)c1` yielded a Ki of 0.316 µM.

On to `Cc1cc(C)c2c(n1)sc1c(N)ncnc12`, for which the Ki worked out at 3.16 µM.

Take `C[C@@H](Nc1c(Nc2ccncc2)c(=O)c1=O)C(C)(C)C`: the Ki was over 10 µM.

The compound `C(=C\c1cncc(O[C@@H]2CCNC2)c1)/c1ccncc1` gave a Ki of over 10 µM.
